Laboratory results reported in ChEMBL document CHEMBL1201862, “PubChem BioAssay data set” (2004).
Active and inactive are the calls of the source.

Tests used:
[1] = biological target: DNA dC->dU-editing enzyme APOBEC-3A (Homo sapiens, UniProt P31941); assay: A3A deaminase inhibition for selectivity – biochemical, dose response (AID 504722); type: functional
[2] = biological target: DNA dC->dU-editing enzyme APOBEC-3G (Homo sapiens, UniProt Q9HC16); assay: Dose Response confirmation of small molecule APOBEC3G DNA Deaminase Inhibitors via a fluorescence-based single-stranded DNA deaminase assay. [Related pubchem assays (depositor defined):AID493012, AID493028]; type: functional
DNA dC->dU-editing enzyme APOBEC-3G, sequence (Q9HC16 whole entry): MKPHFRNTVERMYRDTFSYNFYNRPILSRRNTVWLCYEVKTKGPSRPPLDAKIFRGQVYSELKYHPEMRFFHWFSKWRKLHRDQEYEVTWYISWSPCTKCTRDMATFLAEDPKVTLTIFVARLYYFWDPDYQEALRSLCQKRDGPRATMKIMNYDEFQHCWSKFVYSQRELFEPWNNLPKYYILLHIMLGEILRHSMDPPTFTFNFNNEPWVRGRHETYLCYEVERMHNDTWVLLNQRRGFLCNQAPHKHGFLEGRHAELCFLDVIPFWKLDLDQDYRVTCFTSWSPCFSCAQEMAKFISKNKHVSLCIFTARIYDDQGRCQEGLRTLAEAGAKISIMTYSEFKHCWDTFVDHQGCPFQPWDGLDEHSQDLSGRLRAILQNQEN

[3] = biological target: T1, Apoptotic protease-activating factor 1 (Homo sapiens, UniProt O14727); assay: activation of Apaf-1 mediated apoptosis – fluorescent, uHTS hits, dose response (AID 588554); type: functional
T1 sequence (O14727 whole entry): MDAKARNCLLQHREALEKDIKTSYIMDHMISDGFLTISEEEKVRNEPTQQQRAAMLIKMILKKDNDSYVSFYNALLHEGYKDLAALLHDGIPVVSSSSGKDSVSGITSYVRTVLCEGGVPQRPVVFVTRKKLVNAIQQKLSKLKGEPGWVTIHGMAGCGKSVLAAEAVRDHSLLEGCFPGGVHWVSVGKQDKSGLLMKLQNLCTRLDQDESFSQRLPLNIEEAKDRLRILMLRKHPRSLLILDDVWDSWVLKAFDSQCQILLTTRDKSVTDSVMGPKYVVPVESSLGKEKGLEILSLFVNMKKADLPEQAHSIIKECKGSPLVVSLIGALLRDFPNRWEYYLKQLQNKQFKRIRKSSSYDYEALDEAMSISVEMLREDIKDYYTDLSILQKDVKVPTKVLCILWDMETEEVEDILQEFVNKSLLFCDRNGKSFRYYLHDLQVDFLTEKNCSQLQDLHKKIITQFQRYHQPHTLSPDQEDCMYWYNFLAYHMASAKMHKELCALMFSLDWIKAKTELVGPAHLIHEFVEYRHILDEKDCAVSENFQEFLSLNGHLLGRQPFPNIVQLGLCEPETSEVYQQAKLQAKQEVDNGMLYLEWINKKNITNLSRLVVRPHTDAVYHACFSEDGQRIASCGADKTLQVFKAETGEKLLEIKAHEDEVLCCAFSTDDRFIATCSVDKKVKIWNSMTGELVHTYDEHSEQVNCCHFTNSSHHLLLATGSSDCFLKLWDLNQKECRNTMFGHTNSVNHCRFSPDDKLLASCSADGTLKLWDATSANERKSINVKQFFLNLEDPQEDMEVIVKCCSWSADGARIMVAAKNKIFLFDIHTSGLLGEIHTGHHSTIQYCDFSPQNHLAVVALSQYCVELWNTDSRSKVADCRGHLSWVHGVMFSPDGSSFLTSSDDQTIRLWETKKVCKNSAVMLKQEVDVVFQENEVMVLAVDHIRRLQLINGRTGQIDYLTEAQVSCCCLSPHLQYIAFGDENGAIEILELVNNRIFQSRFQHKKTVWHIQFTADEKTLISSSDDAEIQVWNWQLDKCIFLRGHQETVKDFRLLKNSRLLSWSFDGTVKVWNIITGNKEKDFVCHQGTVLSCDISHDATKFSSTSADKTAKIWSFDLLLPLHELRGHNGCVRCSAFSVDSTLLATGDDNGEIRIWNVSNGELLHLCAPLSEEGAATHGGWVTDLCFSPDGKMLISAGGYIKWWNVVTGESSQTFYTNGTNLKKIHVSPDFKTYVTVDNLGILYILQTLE

[4] = biological target: T2, Carboxy-terminal domain RNA polymerase II polypeptide A small phosphatase 1 (Homo sapiens, UniProt Q9GZU7); assay: CTDSP1 inhibitors, concentration-response, biochemical, absorbance readout, ultra-high-throughput screen actives (AID 540297); type: functional
T2 sequence (Q9GZU7 whole entry): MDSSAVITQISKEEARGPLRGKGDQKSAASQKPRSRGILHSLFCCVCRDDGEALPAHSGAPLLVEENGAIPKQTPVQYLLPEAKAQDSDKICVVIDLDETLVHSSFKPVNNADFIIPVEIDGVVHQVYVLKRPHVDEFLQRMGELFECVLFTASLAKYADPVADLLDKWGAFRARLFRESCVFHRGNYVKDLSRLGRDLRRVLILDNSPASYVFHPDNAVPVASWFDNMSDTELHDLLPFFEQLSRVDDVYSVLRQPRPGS

[5] = biological target: DNA (cytosine-5)-methyltransferase 1 (Homo sapiens, UniProt P26358); assay: inhibition of DNA methylation by DNMT1 – biochemical, fluorescent molecular beacon, confirmation (AID 602386); type: functional
DNA (cytosine-5)-methyltransferase 1, sequence (P26358 whole entry): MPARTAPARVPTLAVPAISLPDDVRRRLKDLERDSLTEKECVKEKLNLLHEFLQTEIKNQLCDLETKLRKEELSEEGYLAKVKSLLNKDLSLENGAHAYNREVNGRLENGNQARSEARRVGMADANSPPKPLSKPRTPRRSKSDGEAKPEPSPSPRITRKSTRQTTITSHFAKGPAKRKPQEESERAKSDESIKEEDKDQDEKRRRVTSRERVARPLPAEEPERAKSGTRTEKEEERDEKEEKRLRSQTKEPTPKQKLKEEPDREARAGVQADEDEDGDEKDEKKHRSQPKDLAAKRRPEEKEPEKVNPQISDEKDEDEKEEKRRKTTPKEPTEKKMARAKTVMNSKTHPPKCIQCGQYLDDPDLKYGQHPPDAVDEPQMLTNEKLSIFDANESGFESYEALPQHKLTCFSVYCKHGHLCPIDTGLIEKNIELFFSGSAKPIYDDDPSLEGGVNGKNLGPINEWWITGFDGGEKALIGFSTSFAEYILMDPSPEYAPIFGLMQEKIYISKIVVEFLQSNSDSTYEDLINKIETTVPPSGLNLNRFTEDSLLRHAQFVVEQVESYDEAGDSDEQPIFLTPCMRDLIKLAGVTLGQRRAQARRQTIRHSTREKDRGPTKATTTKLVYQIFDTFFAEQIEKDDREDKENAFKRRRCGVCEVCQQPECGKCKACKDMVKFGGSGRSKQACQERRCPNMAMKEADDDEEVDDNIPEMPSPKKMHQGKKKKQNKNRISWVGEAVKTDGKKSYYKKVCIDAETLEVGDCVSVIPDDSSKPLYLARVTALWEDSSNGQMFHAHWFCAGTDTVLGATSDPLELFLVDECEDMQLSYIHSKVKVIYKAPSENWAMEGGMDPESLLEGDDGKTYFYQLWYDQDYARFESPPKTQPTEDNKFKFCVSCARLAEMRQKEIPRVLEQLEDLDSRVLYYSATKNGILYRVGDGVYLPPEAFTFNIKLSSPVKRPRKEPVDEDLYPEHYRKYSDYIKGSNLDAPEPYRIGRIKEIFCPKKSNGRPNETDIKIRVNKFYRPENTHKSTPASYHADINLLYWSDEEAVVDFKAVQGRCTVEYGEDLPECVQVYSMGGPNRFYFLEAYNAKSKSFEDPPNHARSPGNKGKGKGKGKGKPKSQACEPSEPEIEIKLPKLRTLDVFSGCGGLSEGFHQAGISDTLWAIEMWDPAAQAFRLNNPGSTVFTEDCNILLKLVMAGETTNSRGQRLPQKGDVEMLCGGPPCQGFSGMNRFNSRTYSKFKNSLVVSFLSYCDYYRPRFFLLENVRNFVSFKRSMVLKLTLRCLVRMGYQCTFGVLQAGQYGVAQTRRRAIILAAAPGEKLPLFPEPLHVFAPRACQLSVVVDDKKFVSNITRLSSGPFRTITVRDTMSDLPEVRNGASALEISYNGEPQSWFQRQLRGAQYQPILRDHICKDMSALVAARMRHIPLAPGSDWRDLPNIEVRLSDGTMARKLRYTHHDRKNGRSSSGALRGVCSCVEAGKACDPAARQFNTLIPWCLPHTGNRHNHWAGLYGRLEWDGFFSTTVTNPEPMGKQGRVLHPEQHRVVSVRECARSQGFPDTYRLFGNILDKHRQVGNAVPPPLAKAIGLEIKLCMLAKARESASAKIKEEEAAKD

[6] = biological target: T3, Small ubiquitin-related modifier 1 (Homo sapiens, UniProt P63165); assay: SUMO1 protein interaction blockers, potency – biochemical, fluorescence polarization, uHTS hits, dose response (AID 624382); type: functional; settings: read-out: IC50_Mean
T3 sequence (P63165 whole entry): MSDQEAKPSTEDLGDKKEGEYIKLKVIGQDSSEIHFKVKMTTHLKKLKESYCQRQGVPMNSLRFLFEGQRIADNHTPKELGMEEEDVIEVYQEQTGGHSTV

[7] = biological target: T3, Small ubiquitin-related modifier 1; assay: SUMO1 protein-protein binding blockers, potency – biochemical, FRET, dose response (AID 624383); type: functional; settings: read-out: IC50_Mean
[8] = Luminescence Cell-Based Dose Confirmation HTS to Identify Activators of 5'UTR Stem-Loop Driven Alpha-Synuclein mRNA Translation in H4 Neuroglioblastoma Cells. [Related pubchem assays: 1829 (Project Summary), 1814 (Primary HTS)]; type: functional
[9] = Luminescence Cell-Based Dose Response HTS to Identify Activators of Luciferase Translation or Activity in H4 […] Cells. [Related pubchem assays: 1829 (Project Summary), 1814 (Primary HTS)]; type: functional
cells [10] = type: functional, cell-based
H4 = assay: Luminescence Cell-Based Dose Response HTS to Identify Activators of 5'UTR Stem-Loop Driven Prion Protein mRNA Translation in H4 Neuroglioblastoma Cells. [Related pubchem assays: 1829 (Project Summary), 1814 (Primary HTS)]; type: functional; settings: Homo sapiens
cells [11] = type: functional, cell-based; remark: listed apart in the source
[12] = Luminescence Cell-Based Dose Retest to Confirm Inhibitors of Cancer Stem Cells. [Related pubchem assays (depositor defined):AID2717, AID2721]; type: functional; settings: Homo sapiens
[13] = viability loss of HMLE_sh_eGFP cells – cell-based, luminescence, counter-screen for HMLE_sh_ECad selective toxicity project, dose response (AID 463074); type: functional, Homo sapiens;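 further: HMLE human mammary epithelial cells expressing control shRNA against eGFP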
[14] = NIH-3T3 fibroblast cytotoxicity, dose response, cytotoxicity control, cell-based, fluorescence, Alamar Blue, secondary assay (AID 2327); type: functional;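 further: NIH-3T3 mouse fibroblasts cultured with fluconazole at 8 µg/mL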
[15] = system: Streptococcus sp. 'group A'; assay: Streptococcus pyogenes SK(-)GAS viability under kanamycin – luminescence, BacTiterGlo, confirmation, counter-screen for streptokinase expression inhibitor project, dose response (AID 1900); type: functional, organism-based
Streptokinase A = biological target: T4, Streptokinase A (Streptococcus pyogenes serotype M1, UniProt P10520); assay: viability-normalized secreted streptokinase activity reduction – plasminogen activation absorbance, OD405, dose response (AID 1914); type: functional, Streptococcus pyogenes M1 GAS;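 further: secreted streptokinase activity via plasminogen activation per viability signal from cell pellet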
T4 sequence (P10520 whole entry): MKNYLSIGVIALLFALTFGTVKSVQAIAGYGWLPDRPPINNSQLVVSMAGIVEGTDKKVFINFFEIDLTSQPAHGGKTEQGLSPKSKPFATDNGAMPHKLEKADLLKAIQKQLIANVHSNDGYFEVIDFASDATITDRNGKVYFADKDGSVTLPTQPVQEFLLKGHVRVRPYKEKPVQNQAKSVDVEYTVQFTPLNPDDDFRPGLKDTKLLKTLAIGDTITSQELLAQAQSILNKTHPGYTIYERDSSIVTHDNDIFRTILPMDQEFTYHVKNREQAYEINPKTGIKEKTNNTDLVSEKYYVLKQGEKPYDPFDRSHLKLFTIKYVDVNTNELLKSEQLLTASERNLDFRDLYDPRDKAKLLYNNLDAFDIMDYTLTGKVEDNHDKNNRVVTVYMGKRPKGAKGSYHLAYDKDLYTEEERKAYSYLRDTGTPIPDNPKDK

[16] = fluconazole-exposed Candida albicans growth modulators – fluorescence, retest, confirmation (AID 2467); type: functional, cell-based
Streptococcus = assay: GAS UMAA2166 growth inhibition – luminescence, BacTiterGlo, counter-screen for streptokinase expression inhibitor project, dose response (AID 1915); type: functional, organism-based;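 further: potency for reduction of bacterial viability or growth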
CAAX prenyl protease 2 [17] = biological target: CAAX prenyl protease 2 (Saccharomyces cerevisiae S288c, UniProt Q03530); type: biochemical
CAAX prenyl protease 2 (Saccharomyces cerevisiae S288c, UniProt Q03530), sequence (Q03530 whole entry): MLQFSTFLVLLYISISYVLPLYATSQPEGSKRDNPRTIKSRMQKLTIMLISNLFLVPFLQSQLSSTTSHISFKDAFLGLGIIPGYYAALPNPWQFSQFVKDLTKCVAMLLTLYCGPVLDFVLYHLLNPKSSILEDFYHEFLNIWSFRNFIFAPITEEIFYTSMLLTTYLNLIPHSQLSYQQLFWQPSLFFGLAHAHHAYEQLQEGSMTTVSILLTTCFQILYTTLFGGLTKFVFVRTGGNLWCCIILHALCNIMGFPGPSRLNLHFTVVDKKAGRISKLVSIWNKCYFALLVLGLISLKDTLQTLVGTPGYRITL

CAAX prenyl protease 1 = CAAX prenyl protease 1 (Saccharomyces cerevisiae S288c, UniProt P47154); assay: yeast CAAX protease Ste24 inhibition – biochemical, S. cerevisiae, plate reader, cherry-pick, dose response (AID 488815)
CAAX prenyl protease 1, sequence (P47154 whole entry): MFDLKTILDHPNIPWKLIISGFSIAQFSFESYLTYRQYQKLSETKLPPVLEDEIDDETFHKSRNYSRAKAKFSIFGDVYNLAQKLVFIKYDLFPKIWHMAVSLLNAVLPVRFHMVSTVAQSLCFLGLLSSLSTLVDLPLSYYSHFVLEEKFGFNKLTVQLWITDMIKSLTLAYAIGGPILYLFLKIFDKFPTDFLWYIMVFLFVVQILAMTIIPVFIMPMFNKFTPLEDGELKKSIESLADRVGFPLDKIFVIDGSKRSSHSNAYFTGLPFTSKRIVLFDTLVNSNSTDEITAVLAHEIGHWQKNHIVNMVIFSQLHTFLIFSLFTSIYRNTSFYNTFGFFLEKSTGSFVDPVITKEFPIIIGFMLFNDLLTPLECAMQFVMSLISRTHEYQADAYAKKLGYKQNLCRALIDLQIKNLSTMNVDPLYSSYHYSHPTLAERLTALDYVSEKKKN

CAAX prenyl protease 2 [18] = biological target: CAAX prenyl protease 2 (Homo sapiens, UniProt Q9Y256); assay: inhibition of Ras-converting CAAX protease Rce1 – biochemical, yeast membranes, quenched-peptide fluorescence, cherry-pick, dose response (AID 588849)
CAAX prenyl protease 2 (Homo sapiens, UniProt Q9Y256), sequence (Q9Y256 whole entry): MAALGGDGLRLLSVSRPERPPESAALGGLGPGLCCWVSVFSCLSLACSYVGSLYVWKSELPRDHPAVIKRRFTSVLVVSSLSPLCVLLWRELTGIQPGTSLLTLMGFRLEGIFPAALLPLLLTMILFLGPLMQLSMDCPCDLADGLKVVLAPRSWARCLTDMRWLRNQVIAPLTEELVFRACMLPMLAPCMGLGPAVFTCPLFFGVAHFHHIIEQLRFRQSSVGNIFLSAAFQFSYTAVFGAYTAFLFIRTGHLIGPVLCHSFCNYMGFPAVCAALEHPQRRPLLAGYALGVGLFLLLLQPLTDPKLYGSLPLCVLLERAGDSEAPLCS

DNA dC->dU-editing enzyme APOBEC-3A, sequence (P31941 whole entry): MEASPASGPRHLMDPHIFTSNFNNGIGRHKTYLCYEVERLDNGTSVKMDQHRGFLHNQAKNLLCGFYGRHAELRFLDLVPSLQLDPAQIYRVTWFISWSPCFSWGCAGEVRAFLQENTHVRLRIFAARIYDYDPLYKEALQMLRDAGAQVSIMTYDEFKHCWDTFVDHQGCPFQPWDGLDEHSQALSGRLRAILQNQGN

SMILES: C=C(C)C(=O)Nc1cccc(C2=NOC3(C2)C[C@@H](C(N)=O)N(C(=O)/C=C/CC)C3)c1 (some centres not stated)
- IC50 [1]: > 100 µM (inactive)
- IC50 [2]: 6.06 µM (active)
- EC50 [3]: 4.43 µM (active)
- IC50 [4]: 1.73 µM (active)
- IC50 [5]: 5.96 µM (active)
- IC50 [6]: > 66.6 µM (inactive)
- IC50 [7]: 3.25 µM (active)

SMILES: CC(C)c1ccc(NC(=O)CCc2ccccc2)cc1
- EC50 [8]: 7.33 µM (active)
- EC50 [9]: 52.1 µM (active)
- EC50 (cells [10]): > 350 µM (not active)
- EC50 (H4): > 120 µM (inconclusive)
- EC50 (cells [11]): > 350 µM (not active)
- AC50 [12]: 6.63 µM (active)
- AC50 [13]: 40.5 µM (active)

SMILES: CCCCCc1ccc(OCCOCC[n+]2cn(C)c3ccccc32)c(CCCCC)c1
- EC50 [14]: > 150 µM (inactive)
- EC50 [15]: 6.43 µM (active)
- EC50 (Streptokinase A): 13.5 µM (active)
- EC50 [16]: 1.31 µM (active)
- EC50 (Streptococcus): 16.1 µM (inconclusive)
- AC50 (CAAX prenyl protease 2 [17]): 9.1 µM (active)
- AC50 (CAAX prenyl protease 1): 13.1 µM (active)
- AC50 (CAAX prenyl protease 2 [18]): 17.9 µM (active)
